Assay results reported in patent publication US8470765B2, “Polypeptides and antibacterial or antiseptic use of same” (AnGes MG, Inc., priority 2009, dated 2013).
No end group written: not given here.

Assays:
Type in all cases: cell-based
[1] = tested on: Escherichia coli ATCC 25922; assay: ATP Assay (viability at 3 hours), Table 6; conditions: 3 h, 5 μg/mL
Procedure: (§1) Bacteria (Escherichia coli ATCC 25922, Pseudomonas aeruginosa ATCC 27853, Staphylococcus aureus ATCC29213, and Staphylococcus epidermidis JCM 2414) were inoculated to Mueller-Hinton broth: MHB or LB medium, and cultured at a temperature and period suited for each strain. From the thus obtained colonies, each strain was inoculated to a fresh liquid medium and cultured for 16 to 20 hours. Then an aliquot having a volume (10 to 50 μL) appropriate to each strain was inoculated to a fresh liquid medium and cultured for 4 to 6 hours, followed by the measurement of the absorbance at 600 nm. After comparing the turbidity with McFarland #0.5, the resultant was diluted with a medium. Each strain was added to about 10^5 CFU/mL (final concentration).
(§2) Each of the peptide solutions to be tested was diluted with the medium to obtain a solution of 10 μg/mL. As positive controls, tobramycin (TOB), oxacillin (OX) and meropenem (MEPM) were used. By dilution with sterilized purified water to 1.0 mg/mL, positive control-containing media having concentrations of […], respectively for TOB; 0.5, 0.12 and 0.06 μg/mL, respectively, for OX; and 1.0, 0.25, 0.12, 0.06, 0.03 and 0.008 μg/mL respectively, for MEPM, were prepared. To a 96-well microtiter plate, 0.1 mL of the inoculation solution and 0.1 mL of the peptide- or positive control-containing medium having the respective concentration were added, and cultured at 37° C. for 3 hours. The well not containing the sample was used as a negative control. After the culturing, ATP was measured using BacTiter-Glo Microbial Cell Viability Assay kit of PROMEGA, and compared with that in the negative control to obtain a relative value which was defined as a viability. The antibacterial activity was evaluated based on the viability at 3 hours later using ATP as an index.
(§3) The medium used in this test for bacteria was Mueller-Hinton broth. Independent experiments were carried out twice for each strain.

[2] = tested on: Pseudomonas aeruginosa ATCC 27853; assay: ATP Assay (viability at 3 hours), Table 6; conditions: 3 h, 5 μg/mL
Procedure: as §1, §2, §3

[3] = tested on: Staphylococcus aureus ATCC29213; assay: ATP Assay (viability at 3 hours), Table 6; conditions: 3 h, 5 μg/mL
Procedure: as §1, §2, §3

[4] = tested on: Escherichia coli ATCC 25922; assay: microbe, parasite or virus in culture; conditions: Table 5; unit not given
Procedure: (§4) Bacteria (Escherichia coli ATCC 25922, Pseudomonas aeruginosa ATCC 27853, Staphylococcus aureus ATCC29213, Klebsiella pneumoniae JCM 1662, Enterobacter cloacae JCM 1232, Enterobacter aerogenes JCM 1235 and Staphylococcus epidermidis JCM 2414) were inoculated to Mueller-Hinton broth: MHB or LB medium, and cultured at a temperature and period suited for each strain. From the thus obtained colonies, each strain was inoculated to a fresh liquid medium and cultured for 16 to 20 hours. Then an aliquot having a volume (10 to 50 appropriate to each strain was inoculated to a fresh liquid medium and cultured for 4 to 6 hours, followed by the measurement of the absorbance at 600 nm. After comparing the turbidity with McFarland #0.5, the resultant was diluted with a medium. Each strain was added to about 10^5 CFU/mL (final concentration). Each of the peptide solutions to be tested was diluted with MHB to obtain a solution of 128 μg/mL. […] As controls, tobramycin (TOB: aminoglucoside antibiotic), oxacillin (OX:β-lactam antibiotic), meropenem (MEPM: carbapenem antibiotic) and ciprofloxacin (new quinolone antibiotic) were used. […] To a 96-well microtiter plate, 0.1 mL of the inoculation solution and 0.1 mL of the peptide- or positive control-containing medium having the respective concentration were added, and cultured at 37° C. for 16 to 24 hours (or a time period suited for the growth of the respective strain). The well not containing the sample was used as a negative control. After the culturing, the growth was visually observed, and the minimum concentration at which the growth was inhibited was defined as the minimum growth inhibition concentration (MIC). The medium used in this test for bacteria was Mueller-Hinton broth. Independent experiments were carried out twice or more for each strain.

[5] = tested on: Pseudomonas aeruginosa ATCC 27853; assay: microbe, parasite or virus in culture; conditions: Table 5; unit not given
Procedure: as §4

[6] = tested on: Staphylococcus epidermidis JCM 2414; assay: microbe, parasite or virus in culture; conditions: Table 5; unit not given
Procedure: as §4

[7] = tested on: Staphylococcus aureus ATCC29213; assay: microbe, parasite or virus in culture; conditions: Table 5; unit not given
Procedure: as §4

| Substance | Escherichia coli ATP (viability, relative value to negative control) [1] | Pseudomonas aeruginosa ATP (viability, relative value to negative control) [2] | Staphylococcus aureus ATP (viability, relative value to negative control) [3] | MIC Escherichia coli [4] | MIC Pseudomonas aeruginosa [5] | MIC Staphylococcus epidermidis [6] | MIC Staphylococcus aureus [7] |
| --- | --- | --- | --- | --- | --- | --- | --- |
| Ac-RLKRLGERLKRKIQKLIRL-NH2 [SRP-33] | 2.9 | 2.8 | 1.6 | 8-16 | 8-16 | 8-16 | 16 |
| GERLKRKIQKWIRW-NH2 [SRP-26] | 9.0 | 6.2 | 12.9 | 16-32 | 16 | 16-32 | 16 |
| GRLKRLGERLKRKIQKWIRW-NH2 [SRP-22] | 4.5 | 1.4 | 5.0 | 8-16 | 8-16 | 8 | 8-16 |
| RLKRLGERLKRKIQKLIRL-NH2 [SRP-28] | 7.1 | 1.4 | 5.2 | 16 | 4-8 | 8-16 | 16 |
| MGERLKRKIQKWIRW-NH2 [SRP-25] | 23.5 | 15.4 | 10.9 | 16 | 16 | 8-32 | 16 |
| RLKRLGERLKRKIQKLIR-NH2 [SRP-34] | 4.4 | 2.8 | 2.6 | 8-16 | 8-16 | 8-16 | 16-32 |
| KRLGERLKRKIQKLIRL-NH2 [SRP-30] | 19.9 | 2.0 | 6.3 | 64 | 8-16 | 8-16 | 16-64 |
| LKRLGERLKRKIQKLIRL-NH2 [SRP-29] | 9.0 | 1.8 | 1.9 | 16-32 | 8 | 8 | 16-32 |
| RLKRLGERLKRKIQKL-NH2 [SRP-36] | 6.4 | 2.0 | 3.6 | 16-32 | 8-16 | 8 | 16-32 |
| GRLKRLGERLKRKIQKLIRL-NH2 [SRP-27] | 5.6 | 2.1 | 3.2 | 16 | 8-16 | 8-16 | 16 |
| RLKRLGERLKRKIQKLI-NH2 [SRP-35] | 3.6 | 5.2 | 2.1 | 8-16 | 8-16 | 8 | 16-32 |
| RLGERLKRKIQKLIRL-NH2 [SRP-31] | 27.4 | 9.7 | 19.7 | 32-64 | 16 | 8-16 | 32-64 |
| GRLKRVGERLKRKIQKWIRW-NH2 [SRP-23] | 2.8 | 1.5 | 3.0 | 16 | 8-16 | 8-16 | 8-16 |
| GRLKRLGKRLKRKIQKLARL-NH2 [SRP-32] | 7.0 | 1.6 | 5.2 | 16 | 8-16 | 4-8 | 16 |
| GRLKRIGERLKRKIQKWIRW-NH2 [SRP-24] | 8.2 | 1.3 | 2.7 | 16 | 8-16 | 8-32 | 16 |
